Experimental data: ChEMBL document CHEMBL1681743, “Novel second generation analogs of eribulin. Part III: Blood-brain barrier permeability and in vivo activity in a brain tumor model” (Bioorg Med Chem Lett, 2011)
Counter-ions that a name gives are not always drawn. Calls of active or inactive are those of the source. The rule behind the calls is not given here.

What was measured:
[1] = Antiproliferative activity against human doxorubicin-resistant MES-SA/Dx5-Rx1 cells; format: functional
[2] = Antiproliferative activity against human MES-SA cells; format: functional, cell-based
U-251 [3] = assay: Antiproliferative activity against human U251 cells; format: functional, cell-based
Mus musculus = assay: AUC (0 to infinity) in BALB/c mouse at 5 mg/kg, iv; format: ADME, organism-based, Brain; parameters: time infinity, dose 5 mg/kg, route intravenous; settings: in vivo
SF-295 [4] = assay: Antiproliferative activity against human SF295 cells; format: functional, cell-based
[5] = Tmax in BALB/c mouse at 5 mg/kg, iv; format: ADME, organism-based; parameters: dose 5 mg/kg, route intravenous; settings: in vivo
[6] = Fraction unbound in BALB/c mouse brain at 5 mg/kg, iv; format: ADME, organism-based; parameters: dose 5 mg/kg, route intravenous
[7] = Brain penetration index, ratio of AUC (0 to infinity) in brain to plasma of BALB/c mouse at 5 mg/kg, iv; format: ADME, organism-based; parameters: dose 5 mg/kg, route intravenous
[8] = Half life in BALB/c mouse at 5 mg/kg, iv; format: ADME, organism-based; parameters: dose 5 mg/kg, route intravenous; settings: in vivo
SF-295 [9] = assay: Antitumor activity against human SF295 cells infected in athymic mouse assessed as increase in mouse survival at 0.36 to 0.80 mg/kg relative to control; format: functional, organism-based
U-251 [10] = assay: Antitumor activity against human U251 cells infected in athymic mouse assessed as increase in mouse survival at 1.1 to 2.5 mg/kg relative to control; format: functional; settings: dose mg/kg 1.1-2.5
[11] = CSF penetration index, ratio of AUC (0 to infinity) in CSF to plasma of Sprague-Dawley rat at 4 mg/kg, iv; format: ADME, organism-based; parameters: dose 4 mg/kg, route intravenous

IC50 (U-251 [3])	AUC (Mus musculus)	Tmax [5]	fraction unbound [6]	Ratio AUC [7]	half-life [8]	Kp [11]	SMILES	IC50 [1]	IC50 [2]	IC50 (SF-295 [4])	Activity (SF-295 [9])	Activity (U-251 [10])
3.74 nM	–	–	–	–	–	–	C=C(C)CN(CC)C[C@H](C[C@H]1O[C@H]2C[C@H]3O[C@@H](CC[C@@H]4O[C@@H](CC[C@@]56C[C@H]7O[C@H]8[C@@H](O5)[C@H]5O[C@H](CC[C@@H]5O[C@H]8[C@H]7O6)CC(=O)C[C@@H]2[C@H]1OC)CC4=C)C[C@@H](C)C3=C)OC	2.73 nM	0.23 nM	–	–	–
4.05 nM	–	–	–	–	–	–	C=C1C[C@@H]2CC[C@@]34C[C@H]5O[C@H]6[C@@H](O3)[C@H]3O[C@H](CC[C@@H]3O[C@H]6[C@H]5O4)CC(=O)C[C@@H]3[C@@H](OC)[C@@H](CCNCC(F)F)O[C@H]3C[C@H]3O[C@@H](CC[C@@H]1O2)C[C@@H](C)C3=C	31.9 nM	1.91 nM	–	–	–
2.55 nM	3108 ng·h/g	4.8 min	0.034	1.7 mL/g	5.3 h	–	C=C1C[C@@H]2CC[C@@]34C[C@H]5O[C@H]6[C@@H](O3)[C@H]3O[C@H](CC[C@@H]3O[C@H]6[C@H]5O4)CC(=O)C[C@@H]3[C@@H](OC)[C@@H](C[C@@H](CN4CC(C)CC(C)C4)OC)O[C@H]3C[C@H]3O[C@@H](CC[C@@H]1O2)C[C@@H](C)C3=C (some centres not stated)	2.41 nM	0.13 nM	0.1 nM	–	–
0.74 nM	–	–	–	–	–	–	C=C1C[C@@H]2CC[C@@]34C[C@H]5O[C@H]6[C@@H](O3)[C@H]3O[C@H](CC[C@@H]3O[C@H]6[C@H]5O4)CC(=O)C[C@@H]3[C@@H](OC)[C@@H](C[C@@H](COC)OC)O[C@H]3C[C@H]3O[C@@H](CC[C@@H]1O2)C[C@@H](C)C3=C	–	0.24 nM	–	–	–
0.33 nM	–	–	–	–	–	–	C=C1C[C@@H]2CC[C@@]34C[C@H]5O[C@H]6[C@@H](O3)[C@H]3O[C@H](CC[C@@H]3O[C@H]6[C@H]5O4)CC(=O)C[C@@H]3[C@@H](OC)[C@@H](C[C@@H](CN4CCC(C(F)(F)F)CC4)OC)O[C@H]3C[C@H]3O[C@@H](CC[C@@H]1O2)C[C@@H](C)C3=C	0.83 nM	0.14 nM	–	–	–
0.28 nM	–	–	–	–	–	–	C=C1C[C@@H]2CC[C@@]34C[C@H]5O[C@H]6[C@@H](O3)[C@H]3O[C@H](CC[C@@H]3O[C@H]6[C@H]5O4)CC(=O)C[C@@H]3[C@@H](OC)[C@@H](CCN4CCC(C(F)(F)F)CC4)O[C@H]3C[C@H]3O[C@@H](CC[C@@H]1O2)C[C@@H](C)C3=C	0.75 nM	0.11 nM	–	–	–
0.18 nM	–	–	–	–	–	–	C#CCN(C)C[C@H](C[C@H]1O[C@H]2C[C@H]3O[C@@H](CC[C@@H]4O[C@@H](CC[C@@]56C[C@H]7O[C@H]8[C@@H](O5)[C@H]5O[C@H](CC[C@@H]5O[C@H]8[C@H]7O6)CC(=O)C[C@@H]2[C@H]1OC)CC4=C)C[C@@H](C)C3=C)OC	0.95 nM	0.18 nM	0.41 nM	–	–
1.26 nM	–	–	–	–	–	–	C=C1C[C@@H]2CC[C@@]34C[C@H]5O[C@H]6[C@@H](O3)[C@H]3O[C@H](CC[C@@H]3O[C@H]6[C@H]5O4)CC(=O)C[C@@H]3[C@@H](OC)[C@@H](CCN4CCOCC4)O[C@H]3C[C@H]3O[C@@H](CC[C@@H]1O2)C[C@@H](C)C3=C	2.52 nM	0.12 nM	–	–	–

More lines, now with the values behind:

SMILES	IC50 (U-251 [3])	AUC (Mus musculus)	Tmax [5]	fraction unbound [6]	Ratio AUC [7]	half-life [8]	Kp [11]	IC50 [1]	IC50 [2]	IC50 (SF-295 [4])	Activity (SF-295 [9])	Activity (U-251 [10])
C=C1C[C@@H]2CC[C@@]34C[C@H]5O[C@H]6[C@@H](O3)[C@H]3O[C@H](CC[C@@H]3O[C@H]6[C@H]5O4)CC(=O)C[C@@H]3[C@@H](OC)[C@@H](CC(=O)CN4CCOCC4)O[C@H]3C[C@H]3O[C@@H](CC[C@@H]1O2)C[C@@H](C)C3=C	0.88 nM	–	–	–	–	–	–	3.12 nM	0.25 nM	–	–	–
C=C(C)CN1CCO[C@@H](C[C@H]2O[C@H]3C[C@H]4O[C@@H](CC[C@@H]5O[C@@H](CC[C@@]67C[C@H]8O[C@H]9[C@@H](O6)[C@H]6O[C@H](CC[C@@H]6O[C@H]9[C@H]8O7)CC(=O)C[C@@H]3[C@H]2OC)CC5=C)C[C@@H](C)C4=C)C1	0.5 nM	1362 ng·h/g	4.8 min	0.024	1.8 mL/g	1.2 h	–	1.53 nM	0.25 nM	0.26 nM	Active	>175%
CC(=O)O[C@H]1C(=O)[C@@]2(C)[C@H]([C@H](OC(=O)c3ccccc3)[C@]3(O)C[C@H](OC(=O)[C@H](O)[C@@H](NC(=O)c4ccccc4)c4ccccc4)C(C)=C1C3(C)C)[C@]1(OC(C)=O)CO[C@@H]1C[C@@H]2O [PACLITAXEL]	–	–	–	–	–	–	–	> 1000 nM	–	24.6 nM	–	–
C=C(C)CN(CC)CC[C@H]1O[C@H]2C[C@H]3O[C@@H](CC[C@@H]4O[C@@H](CC[C@@]56C[C@H]7O[C@H]8[C@@H](O5)[C@H]5O[C@H](CC[C@@H]5O[C@H]8[C@H]7O6)CC(=O)C[C@@H]2[C@H]1OC)CC4=C)C[C@@H](C)C3=C	0.61 nM	–	–	–	–	–	–	2.89 nM	0.23 nM	–	–	–
C=C1C[C@@H]2CC[C@@]34C[C@H]5O[C@H]6[C@@H](O3)[C@H]3O[C@H](CC[C@@H]3O[C@H]6[C@H]5O4)CC(=O)C[C@@H]3[C@@H](OC)[C@@H](C[C@@H](CN4CCOCC4)OC)O[C@H]3C[C@H]3O[C@@H](CC[C@@H]1O2)C[C@@H](C)C3=C	1.97 nM	1351 ng·h/g	4.8 min	0.113	1.4 mL/g	0.9 h	2.2	1.91 nM	0.16 nM	–	–	–
C=C1C[C@@H]2CC[C@@]34C[C@H]5O[C@H]6[C@@H](O3)[C@H]3O[C@H](CC[C@@H]3O[C@H]6[C@H]5O4)CC(=O)C[C@@H]3[C@@H](OC)[C@@H](C[C@H](O)CN)O[C@H]3C[C@H]3O[C@@H](CC[C@@H]1O2)C[C@@H](C)C3=C [ERIBULIN MESYLATE]	5.87 nM	435 ng·h/g	30 min	–	0.55 mL/g	46 h	–	–	–	27.9 nM	–	–
C=C1C[C@@H]2CC[C@@]34C[C@H]5O[C@H]6[C@@H](O3)[C@H]3O[C@H](CC[C@@H]3O[C@H]6[C@H]5O4)CC(=O)C[C@@H]3[C@@H](OC)[C@@H](CCCN4CCOCC4)O[C@H]3C[C@H]3O[C@@H](CC[C@@H]1O2)C[C@@H](C)C3=C	1.44 nM	10200 ng·h/g	15 min	0.101	7.7 mL/g	4.6 h	–	1.3 nM	0.083 nM	–	–	–
